Reference: patent US5516889A, “Synthetic thrombin receptor peptides” (University Technologies International, Inc., priority 1995, dated 1996)
Residues, ends and D or L forms follow the SMILES beside them.

Experiments:
[1] = test system: thrombin receptor (gastric longitudinal muscle strips); test: Gastric longitudinal muscle (LM) assay, either or both GLM and RLM; format: cell-based
Description: LM: Either or both GLM and RLM
The guinea pig gastric longitudinal muscle (GLM) strips and the rat thoracic aorta (RA) ring preparations were isolated as previously described 14, 15. In brief, gastric LM strips (3×10 mm), obtained from male albino Hartley strain guinea pigs were equilibrated for about 1.5 h at 37° (in an aerated (95% O2 /5% CO2) Krebs-Henseleit buffer (3 mL) of the following composition (in mM): NaCl, 118; KCl, 4.7; CaCl2, 2.5; MgCl2, 1.2; NaHCO3, 25; KH2 PO4, 1.2; and glucose, 10. The pH was maintained at 7.4. Rat gastric LM strips (3×10 mm) were obtained, as for the GLM strips, from male albino Sprague Dawley animals (250-300 g). The stomach, opened along the greater curvature, was stripped free of all mucosal tissue under microscopic visualization and longitudinal tissue strips were cut exactly at right angles to the visible circular muscle bundles. Tissue strips were pre-equilibrated in the buffer described above. […] Contractions were monitored isometrically using Statham force-displacement transducers. […]
Weighed peptide samples were routinely dissolved in 50 mM phosphate buffer, pH 7.4, to yield stock solutions, from which volumes of up to 0.2 mL were added directly to the organ bath; the concentrations of all stock solutions used were verified by quantitative amino acid analysis of aliquots. […]

[2] = biological target: T1, thrombin receptor (rat gastric longitudinal muscle strips) (Rattus norvegicus, UniProt P26824); test: Rat gastric longitudinal muscle (RLM) strip contractile assay; format: cell-based
T1 construct: Rat gastric LM strips (3×10 mm) were obtained; from tissue; host or cells: rat (Sprague Dawley) gastric longitudinal muscle strips
T1 sequence (P26824 22-432): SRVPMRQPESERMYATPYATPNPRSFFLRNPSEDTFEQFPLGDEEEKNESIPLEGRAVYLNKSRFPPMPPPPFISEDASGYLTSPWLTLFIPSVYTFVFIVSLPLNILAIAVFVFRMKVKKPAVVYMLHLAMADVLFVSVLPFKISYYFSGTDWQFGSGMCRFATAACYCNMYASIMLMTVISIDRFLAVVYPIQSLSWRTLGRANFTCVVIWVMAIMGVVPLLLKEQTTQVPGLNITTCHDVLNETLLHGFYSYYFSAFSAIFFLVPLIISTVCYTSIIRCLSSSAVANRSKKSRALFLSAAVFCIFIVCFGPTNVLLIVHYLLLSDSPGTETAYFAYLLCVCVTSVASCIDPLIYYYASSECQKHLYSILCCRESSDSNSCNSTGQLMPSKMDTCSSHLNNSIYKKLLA
Excerpt: We obtained an evaluation of the potencies of the various TRPs, relative to P5, by using the linear portions of the concentration-effect curves, so as to calculate for several response levels the average ratio of concentrations (REC) of an individual TRP, relative to concentration of P5 that caused the same contractile response (i.e. REC =ECTRP .div.ECPS). […] In the RA assay, a similar approach to the estimate of relative potencies (REC S) was used, even though all agonists, except for P5--OCH3, appeared to cause equivalent maximal relaxation (FIG. 2, lower).
(§1) The guinea pig gastric longitudinal muscle (GLM) strips and the rat thoracic aorta (RA) ring preparations were isolated as previously described 14, 15. In brief, gastric LM strips (3×10 mm), obtained from male albino Hartley strain guinea pigs were equilibrated for about 1.5 h at 37° (in an aerated (95% O2 /5% CO2) Krebs-Henseleit buffer (3 mL) of the following composition (in mM): NaCl, 118; KCl, 4.7; CaCl2, 2.5; MgCl2, 1.2; NaHCO3, 25; KH2 PO4, 1.2; and glucose, 10. The pH was maintained at 7.4. Rat gastric LM strips (3×10 mm) were obtained, as for the GLM strips, from male albino Sprague Dawley animals (250-300 g). The stomach, opened along the greater curvature, was stripped free of all mucosal tissue under microscopic visualization and longitudinal tissue strips were cut exactly at right angles to the visible circular muscle bundles. Tissue strips were pre-equilibrated in the buffer described above. Each tissue was challenged twice each in succession at timed intervals with 50 nM carbachol (20 min intervals), 1 μM angiotensin-II (1 h intervals) and 95 μM (60 μg/mL) receptor pentapeptide (P5, SFLLR, SEQ ID NO: 2) (25 min intervals for GLM; 30-35 min for RLM); tissues were washed at 10 and 15 min after the additions of agonists. Contractions were monitored isometrically using Statham force-displacement transducers. Only tissues responding well to all three agonists were used further for the evaluation of the biological activities of P5 and other peptide agonists. For the GLM and RLM assays, concentration-effect curves for all peptides were constructed by expressing the response of each agonist as a percentage (% P595) relative to the contraction caused by 95 μM (60 μg/mL) P5 (0.9±0.1 g tension: mean ±S.E.M. for n=12 in the GLM; 1.6±0.9 g tension: mean ±S.E.M. for n=36 in the RLM).
Weighed peptide samples were routinely dissolved in 50 mM phosphate buffer, pH 7.4, to yield stock solutions, from which volumes of up to 0.2 mL were added directly to the organ bath; the concentrations of all stock solutions used were verified by quantitative amino acid analysis of aliquots. Pr-P4 and Pr-P4--NH2 were dissolved in 40 mM phosphate buffer, pH 7.4, containing 20% v/v absolute ethanol (i.e. 8 Vol of the above 50 mM phosphate buffer +2 Vol. ethanol). Control aliquots of the ethanol-containing phosphate buffer alone had no effect on either of the bioassay systems. Acetylcholine, carbachol, indomethacin, noradrenaline and angiotensin-II and thrombin (human, 3000 to 4000 U/mg; 1 U/mL.perspectiveto.10 nM) were from Sigma (St. Louis, Mo.); genistein (GS) was from ICN Biochemicals, Costa Mesa, Calif. Tyrphostin (TP) (RG 50864, also designated AG213) was obtained through the courtesy of Dr. R. R. Swillo, Rhone-Poulenc Rorer (Collegeville, Pa). […] Indomethacin was dissolved in ethanol, such that the final ethanol concentration in the organ bath was at or lower than 0.01% v/v; this concentration of ethanol alone had no effect on the bioassay systems.

[3] = biological target: T2, thrombin receptor (guinea pig gastric longitudinal muscle strips) (Cavia porcellus, UniProt A0A286XH07); settings: for Relative potency (REC) GLM: average concentration ratio relative to P5 causing equal contractile response (REC = EC TRP ÷ EC P5)
T2 sequence (A0A286XH07 24-426): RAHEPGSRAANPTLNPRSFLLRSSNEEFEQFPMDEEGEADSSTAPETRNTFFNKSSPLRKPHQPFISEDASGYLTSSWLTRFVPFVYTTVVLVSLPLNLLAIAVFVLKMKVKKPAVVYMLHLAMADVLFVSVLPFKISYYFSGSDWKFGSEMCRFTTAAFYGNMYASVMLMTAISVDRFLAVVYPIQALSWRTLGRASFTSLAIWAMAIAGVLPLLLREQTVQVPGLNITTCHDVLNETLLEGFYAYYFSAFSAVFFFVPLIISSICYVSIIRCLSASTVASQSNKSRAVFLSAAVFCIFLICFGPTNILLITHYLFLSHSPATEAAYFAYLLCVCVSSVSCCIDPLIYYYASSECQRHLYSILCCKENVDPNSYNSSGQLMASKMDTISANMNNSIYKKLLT
Description: as §1, with “agonists.” for “agonists. For the GLM and RLM assays, concentration-effect curves for all peptides were constructed by expressing the response of each agonist as a percentage (% P595) relative to the contraction caused by 95 μM (60 μg/mL) P5 (0.9±0.1 g tension: mean ±S.E.M. for n=12 in the GLM; 1.6±0.9 g tension: mean ±S.E.M. for n=36 in the RLM).”

[4] = test system: thrombin receptor (rat thoracic aorta rings, intact endothelium); settings: for Relative potency (REC) RA: average concentration ratio relative to P5 causing equal relaxation response (REC = EC TRP ÷ EC P5)
Description: Thoracic RA rings (2 mm×3 mm), obtained from male albino Sprague Dawley rats, were equilibrated (about 1 h, 37° ) in the same organ bath buffer as was used for the LM tissue, and tension (baseline 1.0 g) was monitored isometrically using either Statham or Grass force-displacement transducers. The presence of an intact endothelium was ascertained by monitoring a relaxation response to acetylcholine (ACh, 1 μM) in a preparation that was submaximally (EC75) contracted by 0.1 μM noradrenaline (NA) in the presence of 0.1 mM ascorbic acid (to preserve the catecholamine). Only tissues yielding a relaxation concentration-response curve between 0.01 and 10 μM acetylcholine (maximal relaxation of 70 to 90%, relative to the tension developed by 0.1 μM NA) were used for the further evaluation of the receptor-derived peptides. The assay of TRP responsiveness was done (e.g. see FIG. 1) on tissues that were precontacted with 0.1 μM NA at 30 min time intervals. Tissues were washed approx. 5 min after the application of TRPs. […] For purposes of comparison, the same stock solutions of an individual peptide were evaluated, relative to P5, in both the RA and LM bioassays. When possible, both assays were done simultaneously on the same day.
Weighed peptide samples were routinely dissolved in 50 mM phosphate buffer, pH 7.4, to yield stock solutions, from which volumes of up to 0.2 mL were added directly to the organ bath; the concentrations of all stock solutions used were verified by quantitative amino acid analysis of aliquots. Pr-P4 and Pr-P4--NH2 were dissolved in 40 mM phosphate buffer, pH 7.4, containing 20% v/v absolute ethanol (i.e. 8 Vol of the above 50 mM phosphate buffer +2 Vol. ethanol). […] Indomethacin was dissolved in ethanol, such that the final ethanol concentration in the organ bath was at or lower than 0.01% v/v; this concentration of ethanol alone had no effect on the bioassay systems.

[5] = HPLC analysis of peptide recovered from RLM and RA organ bath solution; format: in vitro ADME, rat; settings: just after peak of tissue response (5-10 min)
Description: As illustrated in FIG. 4 (lanes C and D), the organ bath solution withdrawn from either a RLM or RA assay (30-60 μg/mL P5 or 47.5 to 95 μM), just after the peak of tissue response, was subjected to analysis by HPLC and compared with a standard solution of P5 made immediately before HPLC analysis either in buffer alone or in buffer that had been exposed to tissue under the conditions of a bioassay. […] In FIG. 4, the peptide degradation products would have been eluted at retention times earlier than those of either P5 (17.33 min) or P5--NH2 (16.83 min).

[6] = test system: thrombin receptor (LM and RA assays); test: Activity of cyclic TRPs in the bioassays previously described (assay not specified); format: cell-based; settings: concentration tested 9 to 200 μM, differs per compound
Description: as §1, with “Only tissues responding well to all three agonists were used further for the evaluation of the biological activities of P5 and other peptide agonists. For the GLM and RLM assays, concentration-effect curves for all peptides were constructed by expressing the response of each agonist as a percentage (% P595) relative to the contraction caused by 95 μM (60 μg/mL) P5 (0.9±0.1 g tension: mean ±S.E.M. for n=12 in the GLM; 1.6±0.9 g tension: mean ±S.E.M. for n=36 in the RLM).” left out
Thoracic RA rings (2 mm×3 mm), obtained from male albino Sprague Dawley rats, were equilibrated (about 1 h, 37° ) in the same organ bath buffer as was used for the LM tissue, and tension (baseline 1.0 g) was monitored isometrically using either Statham or Grass force-displacement transducers. […] Therefore, to construct concentration-effect curves and to normalize data between individual preparations, the relaxation responses to P5 and to the other TRPs were expressed as a percentage of the relaxation caused by 215 μM (137 μg/mL) of P5 (% P5215). For purposes of comparison, the same stock solutions of an individual peptide were evaluated, relative to P5, in both the RA and LM bioassays. […]
Cyclic TRPs were evaluated using the bioassays previously described.

[7] = test system: platelets; settings: reported previously; cited from earlier work

| Molecule | Relative potency (REC) RLM [2] | Relative potency (REC) GLM [3] | Relative potency (REC) RA [4] | Recovery of intact peptide from organ bath (HPLC) ([5]; RA organ bath) | Recovery of intact peptide from organ bath (HPLC) ([5]; RLM organ bath) | Activity relative to SFLLR (SEQ ID NO:2) (P-5) (ECcyclic /ECP-5) [6] | other results |
| --- | --- | --- | --- | --- | --- | --- | --- |
| CC(C)C[C@H](NC(=O)[C@H](CC(C)C)NC(=O)[C@H](Cc1ccccc1)NC(=O)[C@@H](N)CO)C(=O)N[C@@H](CCCNC(=N)N)C(N)=O [P5-NH-2, S42 FLLR46 -amide] | 0.2 | 0.1 | 0.1 | recovered essentially intact | recovered essentially intact |  | Desensitization [1]: did not; Desensitization on repeated administration ([3]; GLM): not; Agonist (relaxation) activity ([4]; RA, precontracted with 0.1 μM noradrenaline): transient relaxation |
| CC(C)C[C@@H]1NC(=O)[C@H](Cc2ccccc2)NC(=O)CNC(=O)[C@H](CCCNC(=N)N)NC(=O)[C@H](CC(C)C)NC1=O (cyclo(FLLRG)) |  |  |  |  |  | 4 |  |
| CC(C)C[C@@H]1NC(=O)[C@H](Cc2ccccc2)NC(=O)[C@H](CCCNC(=N)N)NC(=O)[C@H](CC(C)C)NC1=O (cyclo(FLLR)) |  |  |  |  |  | 2 |  |
| CC(C)C[C@@H]1NC(=O)[C@H](Cc2ccccc2)NC(=O)[C@H](CO)NC(=O)[C@H](CCCNC(=N)N)NC(=O)[C@H](CC(C)C)NC1=O |  |  |  |  |  | not active at this concentration |  |
| CC(C)C[C@H](NC(=O)[C@H](CC(C)C)NC(=O)[C@H](Cc1ccccc1)NC(=O)[C@@H](N)CO)C(=O)N[C@@H](CCCNC(=N)N)C(=O)O [P5, S42 FLLR46, reference compound] | 1 | 1 | 1 | Quantitative recovery | essentially quantitative recovery |  |  |
| SFALR |  |  |  |  |  |  | Activity in platelets [7]: little impact on the activity |
